Some test systems named below: RXF 393 renal; OVCAR-4 ovarian; SK-MEL-2 melanoma; HCC-2998 colon; M14 melanoma; SW-620 colon; A498 renal; UACC-62 melanoma; NCI-H460 lung; KM12 colon.
Assay in all cases: DTP human tumour cell line panel, 48 h

Several values for one entry are separate records, joined by “and”; a condition that tells them apart may be missing. Identical values can stand only once.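 A five-concentration, 48-hour dose response in 96-well plates underlies each endpoint, interpolated linearly between surrounding concentrations. Abbreviation: GI50, concentration required for 50% inhibition of growth. TGI denotes the concentration required for complete inhibition of growth.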

Data on 6 compounds can be found in PubChem BioAssay (NCI).

As for `CCCCCCCCOC(=O)c1cc(O)c(O)c(O)c1`, the GI50 (commonly the concentration giving 50% growth inhibition) with RXF 393 renal was 5.45 µM; in the test on OVCAR-4 ovarian it was 2.63 µM; with SK-MEL-2 melanoma, 4.72 µM; with HCC-2998 colon, 6 µM; in the test with M14 melanoma it was 2.15 µM; in the test on SW-620 colon, 2.87 µM. For the same compound, the GI50 is 8.26 µM with A498 renal, 3.27 µM with UACC-62 melanoma, 2.73 µM in the test with NCI-H460 lung and 2.9 µM in the test with KM12 colon. For the same compound, the TGI (in general, the concentration giving total growth inhibition) in the test on RXF 393 renal was 22 µM; with OVCAR-4 ovarian it was > 100 µM; in the test on SK-MEL-2 melanoma it was 18.2 µM; in the test on HCC-2998 colon it was 18.6 µM; in the test on M14 melanoma, 9.19 µM; with SW-620 colon it was 19.4 µM. Also, the TGI in the test with A498 renal was found to be 24.7 µM; in the test on UACC-62 melanoma, 15.3 µM; in the test on NCI-H460 lung, 10.9 µM; in the test on KM12 colon, 17.4 µM.

As to `CC(C)[C@H](COC(C)(C)C)N=CN1CSc2ccccc21`, the TGI in the test on RXF 393 renal was 95.2 µM; with OVCAR-4 ovarian it was > 100 µM; with SK-MEL-2 melanoma it was > 100 µM; in the test with HCC-2998 colon, > 100 µM; in the test with M14 melanoma it was > 100 µM; with SW-620 colon, > 100 µM. For the same compound, the TGI in the test with A498 renal, in the test on UACC-62 melanoma, in the test with NCI-H460 lung and in the test with KM12 colon was > 100 µM throughout.

As for `CCCCCCCCCCCCCCCC[N+](C)(C)C`, the GI50 is 0.0963 µM and 0.235 µM with RXF 393 renal; 0.232 µM and 1.52 µM in the test with OVCAR-4 ovarian; 0.314 µM in the test with SK-MEL-2 melanoma; 1.71 µM in the test on HCC-2998 colon; 1.17 µM with M14 melanoma; 0.239 µM and 1.31 µM in the test on SW-620 colon. Moreover, the GI50 in the test on A498 renal is 1.96 µM; in the test with UACC-62 melanoma it was 0.258 µM and 1.43 µM; in the test on NCI-H460 lung, 0.204 µM and 1.24 µM; in the test on KM12 colon it was 1.36 µM. Moreover, the total growth inhibition concentration (TGI) in the test with RXF 393 renal was 0.244 µM and 0.83 µM; with OVCAR-4 ovarian, 1.03 µM and 5.95 µM; with SK-MEL-2 melanoma, 1.17 µM; in the test with HCC-2998 colon, 3.73 µM; in the test on M14 melanoma, 2.86 µM; in the test on SW-620 colon it was 0.859 µM and 2.97 µM. The TGI in the test on A498 renal is 5.25 µM; with UACC-62 melanoma, 1.16 µM and 3.38 µM; in the test with NCI-H460 lung, 0.412 µM and 2.81 µM; in the test with KM12 colon, 2.79 µM.

Consider `Cc1ccc2nc(NC(=O)CSC(=S)N3CCN(Cc4ccccc4)CC3)sc2c1`, for which the GI50 in the test on RXF 393 renal, in the test on OVCAR-4 ovarian, in the test with SK-MEL-2 melanoma, with HCC-2998 colon, in the test with M14 melanoma and in the test on SW-620 colon was > 100 µM throughout. For the same compound, the GI50 with A498 renal was > 100 µM; in the test with UACC-62 melanoma it was > 100 µM; in the test on NCI-H460 lung it was > 100 µM; in the test on KM12 colon, > 94.3 µM. Moreover, the concentration for total growth inhibition (TGI) with RXF 393 renal, in the test on OVCAR-4 ovarian, in the test with SK-MEL-2 melanoma, in the test on HCC-2998 colon, in the test with M14 melanoma and with SW-620 colon was > 100 µM in each case. Further, the total growth inhibition concentration (TGI) in the test with A498 renal, in the test on UACC-62 melanoma, in the test with NCI-H460 lung and in the test with KM12 colon was > 100 µM each time.

Consider `CCCCCn1ncc(-c2c(O)c(O)cc3c(O)c(-c4c(C)cc5c(-c6cnn(CCCCC)n6)c(O)c(O)cc5c4O)c(C)cc23)n1`, for which the 50% growth inhibitory concentration (GI50) in the test on RXF 393 renal was 0.112 µM; in the test with OVCAR-4 ovarian, 0.176 µM; in the test with SK-MEL-2 melanoma, 0.147 µM; with HCC-2998 colon, 0.471 µM; in the test on M14 melanoma it was 0.182 µM; with SW-620 colon, 0.117 µM. The GI50 is 3.99 µM in the test with A498 renal, 0.145 µM in the test on UACC-62 melanoma, 0.0258 µM in the test on NCI-H460 lung and 0.101 µM with KM12 colon. The TGI was found to be 6.45 µM in the test with RXF 393 renal; 4.49 µM with OVCAR-4 ovarian; 6.81 µM in the test with SK-MEL-2 melanoma; 4.24 µM in the test on HCC-2998 colon; 2.89 µM in the test on M14 melanoma; 6.26 µM with SW-620 colon. For the same compound, the total growth inhibition concentration (TGI) in the test on A498 renal was determined as 8.25 µM; in the test on UACC-62 melanoma, 1.27 µM; with NCI-H460 lung, 0.465 µM; in the test on KM12 colon it was 5.25 µM.

Turning to `CN1CCN(c2ccc3nc(-c4ccc5nc(-c6ccc(C(F)(F)F)cc6)[nH]c5c4)[nH]c3c2)CC1`, the GI50 in the test on RXF 393 renal is 1.53 µM; in the test on OVCAR-4 ovarian it was 1.74 µM; with SK-MEL-2 melanoma, 1.87 µM; in the test with HCC-2998 colon it was 1.98 µM; in the test with M14 melanoma, 1.36 µM; with SW-620 colon it was 1.47 µM. The GI50 in the test on A498 renal is 10.7 µM; in the test on UACC-62 melanoma, 1.58 µM; in the test with NCI-H460 lung, 1.9 µM; in the test on KM12 colon, 1.74 µM. In addition, the TGI in the test with RXF 393 renal turned out to be 3.12 µM; in the test on OVCAR-4 ovarian, 3.45 µM; with SK-MEL-2 melanoma it was 3.5 µM; in the test with HCC-2998 colon, 3.57 µM; in the test on M14 melanoma, 2.89 µM; in the test with SW-620 colon it was 3.09 µM. For the same compound, the total growth inhibition concentration (TGI) with A498 renal is 29.6 µM; in the test with UACC-62 melanoma, 3.05 µM; in the test on NCI-H460 lung, 3.55 µM; in the test on KM12 colon it was 3.27 µM.
